Measured values published in PubChem BioAssay AID2060901 (Molecular Pharmacology Branch, DTP, NCI, 2025).

Test system: 422866-222-R5-J1-PDC complex spheroids viability
Experiment: Anticancer human tumor 422866-222-R5-J1-PDC patient-derived pancreatic adenocarcinoma cell line growth inhibition [RAS]
Settings: for IC50: curve of first compound; for viability, T/C: stronger effect = lower value
Source text: RAS pathway inhibitors in Combinations in Complex Spheroids
A high-throughput screen of multi-cell type tumor spheroids was designed to identify active combinations of RAS pathway inhibitors and targeted small molecules. Complex spheroids include a stromal component modeled by human endothelial cells (HUVEC) and fibroblasts modeled by human mesenchymal stem cells (MSCs). The concentration ranges selected for each drug and investigational agent were based upon clinically achievable concentrations if the clinical Cmax of the agent was known.
Compounds. The drugs and investigational agents: abemaciclib (NSC768073), cobimetinib (NSC768068), divarasib (GDC6063, NSC841802), docetaxel (NSC628503), GDC-1971 (RLY-1971, NSC841576), gemcitabine (NSC613327), inavolisib (NSC800729), ipatasertib (NSC767898), KB-0742 (NSC834161), MRTX-1133 (NSC836407), osimertinib (NSC779217), RMC-4630 (NSC839698), RMC-6236 (NSC851965), RMC-6291 (NSC852671), Ro-3306 (NSC812927), sapanisertib (NSC764658), SN-38 (NSC673596), staurosporine (NSC755774), SY5609 (NSC837396), and tovorafenib (DAY101, NSC766906), were obtained from the National Cancer Institute (NCI) Developmental Therapeutics Program Chemical Repository. The FDA-approved anticancer drug set is available from the NCI Developmental Therapeutics Program. […] The stock solutions were prepared in dimethyl sulfoxide (DMSO, Sigma-Aldrich, St. Louis, MO, cat. D2650) at 800-fold the tested concentration and stored at -70 degrees C prior to their use. All drugs and investigational agents were tested over a range starting from a high concentration at or near the clinical Cmax and decreasing in half-log increments. If the clinical Cmax for an agent had not been determined, the highest concentration tested was 10 microM.
Cell Culture. All cells were maintained in an incubator at 37 degrees C and 5% CO2 with 95% humidity. The PDC lines were cultured according to standard operating procedures established by the NCI PDMR. All PDCs were thawed and cultured in Matrigel-coated flasks prepared with a working solution of 1X Ham's F-12 nutrient mix, without supplementation (Invitrogen, Waltham, MA, cat. 11765054), 100 U/mL penicillin-streptomycin (Invitrogen, cat. 15140122), and 2.5% Matrigel (Corning Inc., Corning, NY, cat. 354248) for the first three passages. The 362531-283-R-J2-PDC and 782815-120-R-J1-PDC lines were cultured in 6C/Colon 1B media, which includes advanced DMEM/F-12 (Thermo Fisher Scientific, cat. 12634028), 10 mM HEPES (Thermo Fisher Scientific, cat. 15630080), 1X GlutaMAX supplement (Thermo Fisher Scientific, cat. 35050061), 0.1 mg/mL primocin (InvivoGen, San Diego, CA, cat. ant-pm-2), 10% defined fetal bovine serum, heat inactivated (HyClone Laboratories Inc., Logan, UT, cat. SH30070.03HI), 50% L-WRN conditioned media (ATCC, cat. CRL-3276), 1.25 mM N-Acetyl-L-cysteine (Sigma-Aldrich, cat. A9165), 10 mM nicotinamide (Sigma-Aldrich, cat. N0636), 1X B-27 supplement (Thermo Fisher Scientific, cat. 17504044), 1X N-2 supplement (Thermo Fisher Scientific, cat. 17502048), 50 ng/mL human EGF (Thermo Fisher Scientific, cat. PHG0311), and 10 microM Y-27632 dihydrochloride (Tocris Bioscience, cat. 1254). The K12877-001-R-J1-PDC line was cultured in 6I media, which includes all 6C/Colon 1B media plus 10 ng/mL human FGF-10 (PeproTech, cat. 100-26), 1 ng/mL human FGF-2 (PeproTech, cat. 100-18B), 1 µM prostaglandin E2 (Tocris Bioscience, cat. 2296), […] hydrocortisone (Sigma-Aldrich, cat. H4001), and […] bovine insulin (Sigma-Aldrich, cat. I6634). The K86415-001-R-J1-PDC line was cultured in 6D media, which includes all 6C/Colon 1B media components minus the L-WRN conditioned media. The 485176-168-R4-J1-PDC was cultured in PANC media, which includes all 6C/Colon 1B media plus 100 ng/mL human FGF-10 (PeproTech, cat. 100-26), 500 nM SB-431542 (Selleckchem, cat. S1067), and 10 nM gastrin (Tocris Bioscience, cat. 3006). […]
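Further: spheroids exposed to compounds for 7 days.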
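Wherever viability, T/C is given: 100% = DMSO vehicle control viability.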

CCc1c2c(nc3ccc(O)cc13)-c1cc3c(c(=O)n1C2)COC(=O)[C@]3(O)CC + CCn1c(-c2cccnc2C(C)OC)c2c3cc(ccc31)N1CCOC(CC(NC(=O)C(C(C)C)N(C)C(=O)C3(F)CCN(C(=O)C#CC(C)(C)N(C)C)CC3)C(=O)N3CCCC(N3)C(=O)OCC(C)(C)C2)C1
IC50 (second compound 0.000949 µM): < 0.949 nM | IC50 (second compound 0.003 µM): < 0.949 nM | IC50 (second compound 0.00949 µM): < 0.949 nM | IC50 (second compound 0.03 µM): < 0.949 nM | IC50 (second compound 0.0949 µM): < 0.949 nM | IC50 (second compound 0.3 µM): < 0.949 nM | viability, T/C (second compound 0.000949 µM, first compound 0.000949 µM): 28.2% | viability, T/C (second compound 0.000949 µM, first compound 0.003 µM): 22.7% | viability, T/C (second compound 0.000949 µM, first compound 0.00949 µM): 26.9% | viability, T/C (second compound 0.000949 µM, first compound 0.03 µM): 22% | viability, T/C (second compound 0.000949 µM, first compound 0.0949 µM): 19.6% | viability, T/C (second compound 0.000949 µM, first compound 0.3 µM): 15.6% | viability, T/C (second compound 0.003 µM, first compound 0.000949 µM): 24.8% | viability, T/C (second compound 0.003 µM, first compound 0.003 µM): 15.5% | viability, T/C (second compound 0.003 µM, first compound 0.00949 µM): 15.5% | viability, T/C (second compound 0.003 µM, first compound 0.03 µM): 14.1% | viability, T/C (second compound 0.003 µM, first compound 0.0949 µM): 15.5% | viability, T/C (second compound 0.003 µM, first compound 0.3 µM): 15.1% | viability, T/C (second compound 0.00949 µM, first compound 0.000949 µM): 22.1% | viability, T/C (second compound 0.00949 µM, first compound 0.003 µM): 17.7% | viability, T/C (second compound 0.00949 µM, first compound 0.00949 µM): 17.7% | viability, T/C (second compound 0.00949 µM, first compound 0.03 µM): 15% | viability, T/C (second compound 0.00949 µM, first compound 0.0949 µM): 14.6% | viability, T/C (second compound 0.00949 µM, first compound 0.3 µM): 12.3% | viability, T/C (second compound 0.03 µM, first compound 0.000949 µM): 19.5% | viability, T/C (second compound 0.03 µM, first compound 0.003 µM): 15.7% | viability, T/C (second compound 0.03 µM, first compound 0.00949 µM): 14.8% | viability, T/C (second compound 0.03 µM, first compound 0.03 µM): 13.9% | viability, T/C (second compound 0.03 µM, first compound 0.0949 µM): 13.2% | viability, T/C (second compound 0.03 µM, first compound 0.3 µM): 10.7% | viability, T/C (second compound 0.0949 µM, first compound 0.000949 µM): 15.9% | viability, T/C (second compound 0.0949 µM, first compound 0.003 µM): 13% | viability, T/C (second compound 0.0949 µM, first compound 0.00949 µM): 11.3% | viability, T/C (second compound 0.0949 µM, first compound 0.03 µM): 12.3% | viability, T/C (second compound 0.0949 µM, first compound 0.0949 µM): 11.1% | viability, T/C (second compound 0.0949 µM, first compound 0.3 µM): 9.62% | viability, T/C (second compound 0.3 µM, first compound 0.000949 µM): 13.9% | viability, T/C (second compound 0.3 µM, first compound 0.003 µM): 14.3% | viability, T/C (second compound 0.3 µM, first compound 0.00949 µM): 11.5% | viability, T/C (second compound 0.3 µM, first compound 0.03 µM): 10.7% | viability, T/C (second compound 0.3 µM, first compound 0.0949 µM): 10.3% | viability, T/C (second compound 0.3 µM, first compound 0.3 µM): 7%
